Tests used:
[1] = logP by HPLC on reversed-phase columns (C 18), method [a], acidic range pH 2.3; assay type: physicochemical
Experimental: (§1) The logP values were determined in accordance with EEC Directive 79/831 Annex V.A8 by HPLC (High Performance Liquid Chromatography) on reversed-phase columns (C 18), using the methods below:
[a] The determination is carried out in the acidic range at pH 2.3 using the mobile phases 0.1% aqueous phosphoric acid and acetonitrile, linear gradient from 10% acetonitrile to 95% acetonitrile.

[2] = logP by LC-MS on reversed-phase columns (C 18), method [c], neutral range pH 7.8; assay type: physicochemical; details: pH 7.8
Experimental: as §1
[c] The LC-MS determination in the neutral range is carried out at pH 7.8 using the mobile phases 0.001 molar aqueous ammonium bicarbonate solution and acetonitrile, linear gradient from 10% acetonitrile to 95% acetonitrile.

Leptosphaeria nodorum = Leptosphaeria nodorum test (wheat) / protective; assay type: in vivo; details: Parastagonospora nodorum, active compound concentration 500 ppm, evaluation 7-9 days after inoculation, read-out: efficacy
Experimental: Thereafter, the plants are placed in a greenhouse at 90% relative atmospheric humidity and a temperature of 22° C.

[3] = logP by LC-MS on reversed-phase columns (C 18), method [b], acidic range pH 2.7; assay type: physicochemical; details: pH 2.7, log p
Experimental: as §1
[b] The LC-MS determination in the acidic range is carried out at pH 2.7 using the mobile phases 0.1% aqueous formic acid and acetonitrile (contains 0.1% formic acid), linear gradient from 10% acetonitrile to 95% acetonitrile.

Sphaerotheca fuliginea = assay: Sphaerotheca test (cucumber) / protective; assay type: in vivo; details: Podosphaera fuliginea, 168 h, active compound concentration 500 ppm, evaluation 7 days after inoculation, read-out: efficacy
Experimental: The plants are subsequently placed in a greenhouse at 70% relative atmospheric humidity and a temperature of 23° C.

Pyricularia oryzae = assay: whole plant or invertebrate; assay type: in vivo; details: 120 h, read-out: efficacy

COCc1cccc(Nc2ncc(Cl)c(NCC#N)n2)c1 [Example 51]
chromatographic logP ([1]; pH 2.3, log p): 1.68
chromatographic logP [2]: 2.09

CSC(C)c1cccc([N+](=O)[O-])c1 (stereo not shown) [VIc-I-2, 1-[1-(Methylsulphanyl)ethyl]-3-nitrobenzene]
chromatographic logP ([1]; pH 2.3, logP (pH2.3)): 3.06

CCC(SC)c1cccc(N)c1 (stereo not shown) [IVc-I-1, 3-[1-(Methylsulphanyl)propyl]aniline]
chromatographic logP ([1]; pH 2.3, logP (pH2.3)): 1.49

COCc1cccc(Nc2ncc(Cl)c(NC(C)(C)C(C)=O)n2)c1 [Example 9]
log p ([1]; pH 2.3): 1.99[a]

Clc1ncc(Br)c(NC2CCC2)n1 [Example V-2, 5-Bromo-2-chloro-N-cyclobutylpyrimidin-4-amine]
chromatographic logP ([1]; pH 2.3, logP (pH2.3)): 2.86

CC(O)c1cccc(Nc2ncc(Cl)c(Cl)n2)c1 (stereo not shown) [Xa-14, 1-{3-[(4,5-Dichloropyrimidin-2-yl)amino]phenyl}ethanol]
chromatographic logP ([1]; pH 2.3, logP (pH2.3)): 1.98

COCCOC(c1cccc(N)c1)C(F)(F)F (stereo not shown) [IVc-I-6, 3-[2,2,2-Trifluoro-1-(2-methoxyethoxy)ethyl]aniline]
chromatographic logP ([1]; pH 2.3, logP (pH2.3)): 1.64

CCC(C)[S+]([O-])C(C)c1cccc(Nc2ncc(C(F)(F)F)c(NC3CC3)n2)c1 (stereo not shown) [Example 160]
pest or weed control at 500 ppm (Leptosphaeria nodorum): ≥ 70%
chromatographic logP [3]: 2.85
pest or weed control at 500 ppm (Sphaerotheca fuliginea): ≥ 70%
chromatographic logP [2]: 3.11

COC(C)c1cccc(Nc2ncc(C(F)(F)F)c(Cl)n2)c1 (stereo not shown) [Xa-9, 4-Chloro-N-[3-(1-methoxyethyl)phenyl]-5-(trifluoromethyl)pyrimidin-2-amine]
chromatographic logP ([1]; pH 2.3, logP (pH2.3)): 3.89

FC(F)(F)c1cnc(Cl)nc1NC1CC1 [Example V-21, 2-Chloro-N-cyclopropyl-5-(trifluoromethyl)pyrimidin-4-amine]
chromatographic logP ([1]; pH 2.3, logP (pH2.3)): 2.38

CCCSc1cccc(Nc2ncc(Cl)c(Cl)n2)c1 [Xa-5, 4,5-Dichloro-N-[3-(propylsulphanyl)phenyl]pyrimidin-2-amine]
chromatographic logP ([1]; pH 2.3, logP (pH2.3)): 4.1

CCSC(C)c1cccc(N)c1 (stereo not shown) [IVc-I-4, 3-[1-(Ethylsulphanyl)ethyl]aniline]
chromatographic logP ([1]; pH 2.3, logP (pH2.3)): 1.46

CCC(Cl)c1cccc([N+](=O)[O-])c1 (stereo not shown) [VIIa-1, 1-(1-Chloropropyl)-3-nitrobenzene]
chromatographic logP ([1]; pH 2.3, logP (pH2.3)): 3.31

COCc1cccc(Nc2ncc(Cl)c(NC3CC(C)C3)n2)c1 (stereo not shown) [Example 198]
pest or weed control at 500 ppm (Leptosphaeria nodorum): ≥ 70%
pest or weed control at 500 ppm (Sphaerotheca fuliginea): ≥ 70%
chromatographic logP ([1]; pH 2.3, log p): 4.04

CCCSc1ccc(Nc2ncc(Cl)c(NC3CC3)n2)cc1 [Example 96]
pest or weed control at 500 ppm (Leptosphaeria nodorum): ≥ 70%
chromatographic logP [3]: 3.09
pest or weed control at 250 ppm (Pyricularia oryzae): ≥ 80%

CC(C)Sc1cccc(Nc2ncc(Cl)c(Cl)n2)c1 [Xa-6, 4,5-Dichloro-N-[3-(propan-2-ylsulphanyl)phenyl]pyrimidin-2-amine]
chromatographic logP ([1]; pH 2.3, logP (pH2.3)): 4.04

CSc1cccc(Nc2ncc(C(F)(F)F)c(Cl)n2)c1 [Xa-11, 4-Chloro-N-[3-(methylsulphanyl)phenyl]-5-(trifluoromethyl)pyrimidin-2-amine]
chromatographic logP ([1]; pH 2.3, logP (pH2.3)): 4.11

CCS(=O)(=O)C(C)c1cccc(Nc2ncc(Cl)c(NC(C)C)n2)c1 (stereo not shown) [Example 150]
pest or weed control at 500 ppm (Leptosphaeria nodorum): ≥ 70%
chromatographic logP [3]: 1.65
pest or weed control at 500 ppm (Sphaerotheca fuliginea): ≥ 70%
chromatographic logP [2]: 2.89

CC(C)CCSc1cccc(Nc2ncc(Cl)c(Cl)n2)c1 [Xa-4, 4,5 -Dichloro-N-{3-[(3-methylbutyl)sulphanyl]phenyl}pyrimidin-2-amine]
chromatographic logP ([1]; pH 2.3, logP (pH2.3)): 4.98

Clc1ncc(Cl)c(NC2CC2)n1 [Example V-4, 2,5-Dichloro-N-cyclopropylpyrimidin-4-amine]
chromatographic logP ([1]; pH 2.3, logP (pH2.3)): 1.77

CCCSc1cccc(Nc2ncc(C(F)(F)F)c(Cl)n2)c1 [Xa-1, 4-Chloro-N-[3-(propylsulphanyl)phenyl]-5-(trifluoromethyl)pyrimidin-2-amine]
chromatographic logP ([1]; pH 2.3, logP (pH2.3)): 4.99

CSC(C)c1cccc(Nc2ncc(C(F)(F)F)c(Cl)n2)c1 (stereo not shown) [Xa-8, 4-Chloro-N-{3-[1-(methylsulphanyl)ethyl]phenyl}-5-(trifluoromethyl)pyrimidin-2-amine]
chromatographic logP ([1]; pH 2.3, logP (pH2.3)): 4.5

CCCS(=O)(=O)c1cccc(Nc2ncc(C(F)(F)F)c(Cl)n2)c1 [Xc-1, 4-chloro-N-[3-(propylsulphonyl)phenyl]-5-(trifluoromethyl)pyrimidin-2-amine]
chromatographic logP ([1]; pH 2.3, logP (pH2.3)): 3.29

CC(O)c1cccc(Nc2ncc(C(F)(F)F)c(NC3CC3)n2)c1 (stereo not shown) [Ic-IV-3, 1-(3 -{[4-(Cyclopropylamino)-5-(trifluoromethyl)pyrimidin-2-yl]amino}phenyl)ethanol]
chromatographic logP ([1]; pH 2.3, logP (pH2.3)): 2.01

CCN(C)c1nc(Nc2cccc(COC)c2)ncc1Cl [Example 85]
pest or weed control at 500 ppm (Leptosphaeria nodorum): ≥ 70%
chromatographic logP [3]: 2.14
pest or weed control at 500 ppm (Sphaerotheca fuliginea): ≥ 70%
chromatographic logP [2]: 3.7

COCCCOC(C)c1cccc(Nc2ncc(Cl)c(NC3CC3)n2)c1 (stereo not shown) [Example 256, 5-Chloro-N4-cyclopropyl-N2-{3-[1-(3-methoxypropoxy)ethyl]phenyl}pyrimidine-2,4-diamine]
chromatographic logP [3]: 2.2
chromatographic logP ([1]; pH 2.3, logP (pH2.3)): 2.2
chromatographic logP [2]: 3.62

CCSC(CC)c1cccc(Nc2ncc(Cl)c(NC3CC3)n2)c1 (stereo not shown) [Example 115]
pest or weed control at 500 ppm (Leptosphaeria nodorum): ≥ 70%
chromatographic logP [3]: 3.33
pest or weed control at 500 ppm (Sphaerotheca fuliginea): ≥ 70%
chromatographic logP [2]: 4.69

CCC(SC)c1cccc([N+](=O)[O-])c1 (stereo not shown) [VIc-I-1, 1-[1-(Methylsulphanyl)propyl]-3-nitrobenzene]
chromatographic logP ([1]; pH 2.3, logP (pH2.3)): 3.51

COC(C)c1cccc(Nc2ncc(Br)c(Cl)n2)c1 (stereo not shown) [Xa-13, 5-Bromo-4-chloro-N-[3-(1-methoxyethyl)phenyl]pyrimidin-2-amine]
chromatographic logP ([1]; pH 2.3, logP (pH2.3)): 3.09

COCc1cccc(Nc2ncc(Cl)c(NCCCN3CCCCCC3=O)n2)c1 [Example 52]
log p ([1]; pH 2.3): 1.67[a]

FC(F)(F)c1cnc(Cl)nc1NCC1CC1 [Example V-22, 2-Chloro-N-(cyclopropylmethyl)-5-(trifluoromethyl)pyrimidin-4-amine]
chromatographic logP ([1]; pH 2.3, logP (pH2.3)): 2.98

COCC(O)c1cccc([N+](=O)[O-])c1 (stereo not shown) [2-methoxy-1-(3-nitrophenyl)ethanol, 2-Methoxy-1-(3-nitrophenyl)ethanol]
chromatographic logP ([1]; pH 2.3, logP (pH2.3)): 1.35

CCCC[S+]([O-])c1cccc(Nc2ncc(C(F)(F)F)c(NC3CCC3)n2)c1 (stereo not shown) [Example 203]
pest or weed control at 500 ppm (Leptosphaeria nodorum): ≥ 70%
chromatographic logP [3]: 3.4
pest or weed control at 500 ppm (Sphaerotheca fuliginea): ≥ 70%
chromatographic logP [2]: 3.67

CC(C)Sc1cccc(Nc2ncc(C(F)(F)F)c(Cl)n2)c1 [Xa-2, 4-Chloro-N-[3-(propan-2-ylsulphanyl)phenyl]-5-(trifluoromethyl)pyrimidin-2-amine]
chromatographic logP ([1]; pH 2.3, logP (pH2.3)): 4.93

CSC(C)c1cccc(N)c1 (stereo not shown) [IVc-I-2]
logP (pH2.3) ([1]; pH 2.3): 1.03

COCc1cccc(Nc2ncc(Cl)c(N(C)C3CC3C)n2)c1 (stereo not shown) [Example 199]
pest or weed control at 500 ppm (Leptosphaeria nodorum): ≥ 70%
chromatographic logP [3]: 3.23
pest or weed control at 500 ppm (Sphaerotheca fuliginea): ≥ 70%
chromatographic logP [2]: 4.36

COCc1cccc(Nc2ncc(Cl)c(N(C)C(C)C)n2)c1 [Example 29]
pest or weed control at 500 ppm (Leptosphaeria nodorum): ≥ 70%
chromatographic logP ([1]; pH 2.3, log p): 2.56
chromatographic logP [2]: 4

CC(C)CSc1cccc(Nc2ncc(C(F)(F)F)c(Cl)n2)c1 [Xa-7, 4-Chloro-N-{3-[(2-methylpropyl)sulphanyl]phenyl}-5-(trifluoromethyl)pyrimidin-2-amine]
chromatographic logP ([1]; pH 2.3, logP (pH2.3)): 5.4

CCSC(CC)c1cccc([N+](=O)[O-])c1 (stereo not shown) [VIc-I-3, 1-[1-(Ethylsulphanyl)propyl]-3-nitrobenzene]
chromatographic logP ([1]; pH 2.3, logP (pH2.3)): 3.96

COCC(O)c1cccc(N)c1 (stereo not shown) [IVc-I-7, 1-(3-Aminophenyl)-2-methoxyethanol]
logP (pH2.3) ([1]; pH 2.3): 0.73

CC(C)CCSc1cccc(Nc2ncc(C(F)(F)F)c(Cl)n2)c1 [Xa-3, 4-Chloro-N-{3-[(3-methylbutyl)sulphanyl]phenyl}-5-(trifluoromethyl)pyrimidin-2-amine]
chromatographic logP ([1]; pH 2.3, logP (pH2.3)): 5.79

CCSC(CC)c1cccc(N)c1 (stereo not shown) [IVc-I-3, 3-[1-(Ethylsulphanyl)propyl]aniline]
chromatographic logP ([1]; pH 2.3, logP (pH2.3)): 1.94

CCSCc1cccc(Nc2ncc(Cl)c(NC3CCC3)n2)c1 [Example 219]
pest or weed control at 500 ppm (Leptosphaeria nodorum): ≥ 70%
chromatographic logP [3]: 3
pest or weed control at 500 ppm (Sphaerotheca fuliginea): ≥ 70%
chromatographic logP [2]: 4.44

CCSC(C)c1cccc(Nc2ncc(C(F)(F)F)c(Cl)n2)c1 (stereo not shown) [Xa-12, 4-Chloro-N-{3-[1-(ethylsulphanyl)ethyl]phenyl}-5-(trifluoromethyl)pyrimidin-2-amine]
chromatographic logP ([1]; pH 2.3, logP (pH2.3)): 4.9

CCSC(C)c1cccc([N+](=O)[O-])c1 (stereo not shown) [VIc-I-4, 1-[1-(Ethylsulphanyl)ethyl]-3-nitrobenzene]
chromatographic logP ([1]; pH 2.3, logP (pH2.3)): 3.48

CC(O)c1cccc(Nc2ncc(Br)c(NC3CC3)n2)c1 (stereo not shown) [Ic-IV-2, 1-(3 -{[5-Bromo-4-(cyclopropylamino)pyrimidin-2-yl]amino}phenyl)ethanol]
chromatographic logP ([1]; pH 2.3, logP (pH2.3)): 1.31

COCC(O)c1cccc(N)c1 (stereo not shown) [IVc-I-5, 1-(3-Aminophenyl)-2-methoxyethanol]
chromatographic logP ([1]; pH 2.3, logP (pH2.3)): 0.51

CC(O)c1cccc(Nc2ncc(C(F)(F)F)c(Cl)n2)c1 (stereo not shown) [Xa-15, 1-(3-{[4-Chloro-5-(trifluoromethyl)pyrimidin-2-yl]amino}phenyl)ethanol]
chromatographic logP ([1]; pH 2.3, logP (pH2.3)): 2.81

Clc1ncc(I)c(NC2CCC2)n1 [Example V-3, 2-Chloro-N-cyclobutyl-5-iodine-pyrimidin-4-amine]
logP (pH2.3) ([1]; pH 2.3, HPLC reversed-phase C 18): 3.08
